Assay results published in US8247211B2, “Glycopeptide antibiotics” (American Cyanamid Company, priority 2001, dated 2012).
In brackets after ≈: the same amount, converted by molar mass. Values belong to the compound of their own block, whether it stands above or below them. Numbered stars: 1 amine (or outer) side, 2 acyl side, 3 side chain; on linkers, the order of the positions; unused ones are H or OH. Square brackets hold non-standard residues; d marks the D form. Peptide text beside a SMILES is read from it. X5 = N=C1NCC(C(O)[C@@H](N[*:1])C(=O)[*:2])N1; X4 = N=C1NCC(C(O)[C@H](N[*:1])C(=O)[*:2])N1; Cha = N[C@@H](CC1CCCCC1)C(=O)O; dCha = N[C@H](CC1CCCCC1)C(=O)O

Tests used:
Test in all cases: In vitro antibacterial evaluation: minimum inhibitory concentration (MIC), broth dilution method
Type in all cases: cell-based
Streptococcus sp. = conditions: 18 hours at 35° C.
Method: (§1) The minimum inhibitory concentration (MIC), the lowest concentration of the antibiotic which inhibits growth of the test organism, is determined by the broth dilution method using Muller-Hinton II […] (Baltimore Biological Laboratories) following the recommendations of the National Committee for Clinical Laboratory Standards [Methods for dilution antimicrobial susceptibility tests for bacteria that grow aerobically, approved standard M7-A2, National Committee for Clinical Laboratory Standards, Villanova, Pa].
(§2) An inoculum level of 5×10^5 CFU/mL, and a range of antibiotic concentrations (64-0.06 μg/mL) is used. […] The test organisms include a spectrum of Gram-positive bacteria comprised of Staphylococcus sp., Streptococcus sp. and Enterococcus sp. These organisms include recent clinical isolates that are resistant to methicillin, penicillin and/or vancomycin.

Enterococcus sp. = conditions: broth dilution, 18 hours at 35° C.
Method: as §1, §2

Staphylococcus sp. = conditions: 18 hours at 35° C.
Method: as §1, §2

[1] = Streptococcus pneumoniae (GC 4565), broth dilution
[2] = Streptococcus pneumoniae (GC 1894), broth dilution
[3] = Streptococcus agalactiae (GC 4564), broth dilution
[4] = Streptococcus pneumoniae (ATCC 6301), broth dilution
[5] = Streptococcus pyogenes (GC 4563), broth dilution
[6] = broth dilution, inoculum 5×10^5 CFU/mL

SMILES: CCC(=O)Nc1cc(CC2NC(=O)C(C(C)c3ccccc3)NC(=O)CNC(=O)C(CO)NC(=O)C(C(O)C3CNC(=N)N3C3OC(CO)C(O)C(O)C3O)NC(=O)C(C(O)C3CNC(=N)N3)NC2=O)ccc1O (stereo not drawn) [Example 14, Cyclo[glycyl-β-methylphenylalanyl-3-(propanamido)tyrosyl-3-(2-iminoimidazolidin-4-yl)seryl-3-(3-hexopyranosyl-2-iminoimidazolidin-4-yl)serylseryl]]
- MIC Streptococcus pneumoniae (GC 4565) (Streptococcus sp.; [1]): 64 mg/L (≈ 61.4 µM)
- MIC Streptococcus pneumoniae (GC 4565) (Streptococcus sp.; broth dilution): 64 mg/L (≈ 61.4 µM)

SMILES: CC(C)C(=O)Nc1cc(CC2NC(=O)C(C(C)c3ccccc3)NC(=O)CNC(=O)C(CO)NC(=O)C(C(O)C3CNC(=N)N3C3OC(CO)C(O)C(O)C3O)NC(=O)C(C(O)C3CNC(=N)N3)NC2=O)ccc1O (stereo not drawn) [Example 15, Cyclo[glycyl-β-methylphenylalanyl-3-(2-methylpropanamido)tyrosyl-3-(2-iminoimidazolidin-4-yl)seryl-3-(3-hexopyranosyl-2-iminoimidazolidin-4-yl)serylseryl]]
- MIC Streptococcus pneumoniae (GC 4565) (Streptococcus sp.; [1]): 64 mg/L (≈ 60.6 µM)
- MIC Streptococcus pneumoniae (GC 4565) (Streptococcus sp.; broth dilution): 64 mg/L (≈ 60.6 µM)

SMILES: Cc1ccc(OC(=O)Nc2cc(CC3NC(=O)C(C(C)c4ccccc4)NC(=O)CNC(=O)C(CO)NC(=O)C(C(O)C4CNC(=N)N4C4OC(CO)C(O)C(O)C4O)NC(=O)C(C(O)C4CNC(=N)N4)NC3=O)ccc2O)cc1 (stereo not drawn) [Example 19, Cyclo[glycyl-β-methylphenylalanyl-3-[[(4-methylphenoxy)carbonyl]amino]tyrosyl-3-(2-iminoimidazolidin-4-yl)seryl-3-(3-hexopyranosyl-2-iminoimidazolidin-4-yl)serylseryl]]
- MIC Streptococcus pneumoniae (GC 1894) (Streptococcus sp.; [2]): 64 mg/L (≈ 57.1 µM)
- MIC Streptococcus pneumoniae (GC 1894) (Streptococcus sp.; broth dilution): 64 mg/L (≈ 57.1 µM)

SMILES: CC(c1ccccc1)C1NC(=O)CNC(=O)C(CO)NC(=O)C(C(O)C2CNC(=N)N2C2OC(CO)C(O)C(O)C2O)NC(=O)C(C(O)C2CNC(=N)N2)NC(=O)C(Cc2ccc3oc(=O)[nH]c3c2)NC1=O (stereo not drawn) [Example 22, Cyclo[3-(2,3-dihydro-2-oxo-1,3-benzoxazol-5-yl)alanyl-3-(2-iminoimidazolidin-4-yl)seryl-3-(3-hexopyranosyl-2-iminoimidazolidin-4-yl)serylserylglycyl-β-methylphenylalanyl]]
- MIC Enterococcus faecium (GC 4557) (Enterococcus sp.; Enterococcus faecium (GC 4557)): 64 mg/L (≈ 63.2 µM)
- MIC Enterococcus faecium (GC 4557) (Enterococcus sp.): 64 mg/L (≈ 63.2 µM)
- MIC Streptococcus agalactiae (GC 4564) (Streptococcus sp.; [3]): 32 mg/L (≈ 31.6 µM)
- MIC Streptococcus pneumoniae (ATCC 6301) (Streptococcus sp.; [4]): 8 mg/L (≈ 7.91 µM)
- MIC Streptococcus pneumoniae (GC 1894) (Streptococcus sp.; [2]): 8 mg/L (≈ 7.91 µM)
- MIC Streptococcus pneumoniae (GC 4565) (Streptococcus sp.; [1]): 8 mg/L (≈ 7.91 µM)
- MIC Streptococcus pyogenes (GC 4563) (Streptococcus sp.; [5]): 32 mg/L (≈ 31.6 µM)
- MIC Streptococcus agalactiae (GC 4564) (Streptococcus sp.; broth dilution): 32 mg/L (≈ 31.6 µM)
- MIC Streptococcus pneumoniae (ATCC 6301) (Streptococcus sp.; broth dilution): 8 mg/L (≈ 7.91 µM)
- MIC Streptococcus pneumoniae (GC 1894) (Streptococcus sp.; broth dilution): 8 mg/L (≈ 7.91 µM)
- MIC Streptococcus pneumoniae (GC 4565) (Streptococcus sp.; broth dilution): 8 mg/L (≈ 7.91 µM)
- MIC Streptococcus pyogenes (GC 4563) (Streptococcus sp.; broth dilution): 32 mg/L (≈ 31.6 µM)

SMILES: Cc1cccc(Oc2ccc(-c3nc4cc(C[C@@H]5NC(=O)[C@H](C(C)c6ccccc6)NC(=O)CNC(=O)[C@H](CO)NC(=O)[C@H](C(O)C6CNC(=N)N6)NC(=O)[C@H](C(O)C6CNC(=N)N6)NC5=O)ccc4o3)cc2)c1 (stereo partly drawn) [Example 41, Cyclo[3-[2-[4-(3-methylphenoxy)phenyl]benzoxazol-5-yl]alanyl-3-(2-iminoimidazolidin-4-yl)-seryl-3-(2-iminoimidazolidin-4-yl)serylserylglycyl-β-methylphenylalanyl]]
- MIC Enterococcus faecalis (GC 6189) (Enterococcus sp.; Enterococcus faecalis (GC 6189)): >64 mg/L
- MIC Staphylococcus haemolyticus (GC 4546) (Staphylococcus sp.; strain GC 4546, broth dilution): 64 mg/L (≈ 63 µM)
- MIC Coagulase Negative Staphylococcus (GC 4547) (Staphylococcus sp.; strain GC 4547, broth dilution): 64 mg/L (≈ 63 µM)
- MIC Coagulase Negative Staphylococcus (GC 4548) (Staphylococcus sp.; strain GC 4548, broth dilution): >64 mg/L
- MIC Coagulase Negative Staphylococcus (GC 4549) (Staphylococcus sp.; strain GC 4549, broth dilution): 32 mg/L (≈ 31.5 µM)
- MIC Coagulase Negative Staphylococcus (GC 4551) (Staphylococcus sp.; strain GC 4551, broth dilution): 64 mg/L (≈ 63 µM)

SMILES: N=C1NCC(C(O)[C@@H]2NC(=O)[C@@H](CC3CCCCC3)NC(=O)[C@H](CC3CCCCC3)NC(=O)CNC(=O)[C@H](CO)NC(=O)[C@@H](C(O)C3CNC(=N)N3)NC2=O)N1 (stereo partly drawn) [Example 58, Cyclo[3-cyclohexylalanyl-3-cyclohexylalanyl-3-(2-iminoimidazolidin-4-yl)seryl-3-(2-iminoimidazolidin-4-yl)-serylserylglycyl]] (cyclo([Cha][dCha][X4][X5]SG))
- MIC Coagulase Negative Staphylococcus (GC 4547) (Staphylococcus sp.; broth dilution): 4 mg/L (≈ 5.06 µM)
- MIC Coagulase Negative Staphylococcus (GC 4548) (Staphylococcus sp.; broth dilution): 4 mg/L (≈ 5.06 µM)
- MIC Coagulase Negative Staphylococcus (GC 4549) (Staphylococcus sp.; broth dilution): 4 mg/L (≈ 5.06 µM)
- MIC Coagulase Negative Staphylococcus (GC 4551) (Staphylococcus sp.; broth dilution): 8 mg/L (≈ 10.1 µM)
- MIC Staphylococcus haemolyticus (GC 4546) (Staphylococcus sp.; broth dilution): 4 mg/L (≈ 5.06 µM)
- MIC Staphylococcus aureus (ATCC 29213) (Staphylococcus sp.; strain ATCC 29213, broth dilution): 16 mg/L (≈ 20.2 µM)
- MIC Staphylococcus aureus (GC 4542) (Staphylococcus sp.; strain GC 4542, broth dilution): 16 mg/L (≈ 20.2 µM)
- MIC Staphylococcus aureus (GC 4544) (Staphylococcus sp.; strain GC 4544, broth dilution): 16 mg/L (≈ 20.2 µM)

More lines, now with the values ahead:

- MIC Streptococcus agalactiae (GC 4564) (Streptococcus sp.; [3]): 64 mg/L (≈ 49 µM)
- MIC Streptococcus pneumoniae (ATCC 6301) (Streptococcus sp.; [4]): 64 mg/L (≈ 49 µM)
- MIC Streptococcus pneumoniae (GC 1894) (Streptococcus sp.; [2]): 32 mg/L (≈ 24.5 µM)
- MIC Streptococcus pneumoniae (GC 4565) (Streptococcus sp.; [1]): 64 mg/L (≈ 49 µM)
- MIC Streptococcus pyogenes (GC 4563) (Streptococcus sp.; [5]): 64 mg/L (≈ 49 µM)
- MIC Streptococcus agalactiae (GC 4564) (Streptococcus sp.; broth dilution): 64 mg/L (≈ 49 µM)
- MIC Streptococcus pneumoniae (ATCC 6301) (Streptococcus sp.; broth dilution): 64 mg/L (≈ 49 µM)
- MIC Streptococcus pneumoniae (GC 1894) (Streptococcus sp.; broth dilution): 32 mg/L (≈ 24.5 µM)
- MIC Streptococcus pneumoniae (GC 4565) (Streptococcus sp.; broth dilution): 64 mg/L (≈ 49 µM)
- MIC Streptococcus pyogenes (GC 4563) (Streptococcus sp.; broth dilution): 64 mg/L (≈ 49 µM)
SMILES: CC(C1CCCCC1)C1NC(=O)CNC(=O)C(CO)NC(=O)C(C(O)C2CNC(=N)N2C2OC(CO)C(O)C(O)C2O)NC(=O)C(C(O)C2CNC(=N)N2)NC(=O)C(CC2CCC(OC3OC(CO)C(OC4OC(CO)C(O)C(O)C4O)C(O)C3O)CC2)NC1=O (stereo not drawn) [Example 53a, Cyclo[3-[4-[(4-O-hexopyranosylhexopyranosyl)oxy]cyclohexyl]alanyl-3-(2-iminoimidazolidin-4-yl)seryl-3-(3-hexopyranosyl-2-iminoimidazolidin-4-yl)serylserylglycyl-3-cyclohexyl-2-aminobutanoyl]]

- MIC Coagulase Negative Staphylococcus (GC 6257) (Staphylococcus sp.; Coagulase Negative Staphylococcus (GC 6257)): 12 to 32 mg/L
- MIC Streptococcus agalactiae (GC 4564) (Streptococcus sp.; Streptococcus agalactiae (GC 4564)): 1 to 8 mg/L
- MIC Streptococcus pneumoniae (GC 1894) (Streptococcus sp.; Streptococcus pneumoniae (GC 1894)): <0.06 to 2 mg/L
- MIC Streptococcus pneumoniae (GC 4565) (Streptococcus sp.; Streptococcus pneumoniae (GC 4565)): 0.5 to 8 mg/L
- MIC Streptococcus pyogenes (GC 4563) (Streptococcus sp.; Streptococcus pyogenes (GC 4563)): 1 to 8 mg/L
- MIC Streptococcus agalactiae (GC 4564) (Streptococcus sp.; [6]): 1 to 8 mg/L
- MIC Streptococcus pneumoniae (GC 1894) (Streptococcus sp.; [6]): <0.06 to 2 mg/L
- MIC Streptococcus pneumoniae (GC 4565) (Streptococcus sp.; [6]): 0.5 to 8 mg/L
- MIC Streptococcus pyogenes (GC 4563) (Streptococcus sp.; [6]): 1 to 8 mg/L
SMILES: CC(c1ccccc1)C1NC(=O)CNC(=O)C(CO)NC(=O)C(C(O)C2CNC(=N)N2C2OC(CO)C(O)C(O)C2O)NC(=O)C(C(O)C2CNC(=N)N2)NC(=O)C(Cc2ccc(OC3OC(CO)C(OC4OC(CO)C(O)C(O)C4OCc4ccc(OCc5ccccc5)cc4)C(O)C3O)cc2)NC1=O (stereo not drawn) [Example 231b, Cyclo[glycyl-β-methylphenylalanyl-O-[4-O-[2-O-[4-(phenylmethoxy)benzyl]hexopyranosyl]-hexopyranosyl]tyrosyl-3-(2-iminoimidazolidin-4-yl)seryl-3-(3-hexopyranosyl-2-iminoimidazolidin-4-yl)serylseryl]]
